Drawing on PubChem BioAssay (NCI), this text covers TGI and GI50 for nine compounds.

Each structure is given as a SMILES string. Values joined by “and” are separate entries in the source; they are usually repeats but may differ in a detail not shown here. Equal entries are not always repeated.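 Values below derive from 48-hour exposures of cells grown in 96-well plates, with endpoints linearly interpolated between the two concentrations bracketing the appropriate inhibition level. Here, GI50 denotes the concentration required for 50% inhibition of growth. At the TGI there is no net growth.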

Holding throughout (test): NCI anticancer screen, dose series, 48 h
Experiment [1] has as its system HOP-92 NSCLC.
Experiment [2] concerns UO-31 renal.
The test system of experiment [3] is CAKI-1 renal.
Experiment [4] has as its system DU-145 prostate.
Experiment [5] concerns KM12 colon.
Experiment [6] relates to RPMI-8226 leukemia.
Experiment [7] relates to RXF 393 renal.
The test system of experiment [8] is IGROV1 ovarian.
In experiment [9] the test system is MOLT-4 leukemia.
Experiment [10] has as its system SK-MEL-2 melanoma.

`CC1(CC(=O)O)OC2CCCCCC2O1` (configuration not stated) (tested in a mixture with another compound): the TGI in experiment [1], in experiment [2], in experiment [3], in [4], in experiment [5] and in [6] was greater than 100 µM in each case. Further, the TGI in experiment [7], in [8], in experiment [9] and in [10] was greater than 100 µM in each case.
For `CCOC(=O)c1[nH]c2c(c1C)-c1[nH]c(=O)c(S(=O)(=O)c3ccccc3)cc1SC2`, the GI50 in experiment [1] is 0.504 µM; in [2], greater than 100 µM; in [3], 54.1 µM; in experiment [4] it was 30.6 µM; in experiment [5] it was 38.5 µM; in experiment [6] it was 44 µM. Besides, the GI50 is 28.4 µM in experiment [7], 21.3 µM in experiment [8], 15.7 µM in experiment [9] and 92.3 µM in [10]. The TGI is 61.1 µM in experiment [1]; greater than 100 µM in [2]; greater than 100 µM in experiment [3]; greater than 100 µM in experiment [4]; greater than 100 µM in experiment [5]; greater than 100 µM in experiment [6]. The TGI in experiment [7], in experiment [8], in experiment [9] and in experiment [10] was greater than 100 µM in each case.
In the case of `CC1Cc2c(N(C)C)ncnc2N(C)c2ccc(Cl)cc21` (configuration not stated), the GI50 in [1] was 11 µM; in experiment [2], 4.4 µM; in [3], 3.12 µM; in experiment [4], 5.49 µM; in experiment [5], 3.15 µM; in experiment [6], 3.53 µM. The GI50 was 2.03 µM in [7], 8.48 µM in experiment [8], 3.52 µM in [9] and 5.88 µM in experiment [10]. Moreover, the TGI is 69.6 µM in experiment [1]; 72.4 µM in [2]; greater than 100 µM in experiment [3]; greater than 100 µM in experiment [4]; greater than 100 µM in [5]; 17.3 µM in experiment [6]. The TGI was 6.98 µM in experiment [7], greater than 100 µM in [8], 27.3 µM in experiment [9] and 57.3 µM in experiment [10].
Turning to `COc1cc(C2C3=C(COC3=O)N(CCO)c3cc4c(cc32)CCC4)cc(OC)c1O` (configuration not stated), the GI50 in [1] is greater than 32.5 µM; in experiment [2], 0.426 µM; in [3] it was 0.508 µM; in experiment [4], 0.136 µM; in experiment [5] it was 0.121 µM; in experiment [6], 0.838 µM. Further, the GI50 in [7] was 0.0943 µM; in experiment [8], 0.159 µM; in experiment [9], 0.52 µM; in experiment [10] it was 0.0795 µM. Besides, the TGI in experiment [1] was greater than 32.5 µM; in experiment [2], greater than 32.5 µM; in [3], greater than 26.3 µM; in [4], 2.31 µM; in experiment [5], 5.52 µM; in [6], greater than 32.5 µM. Besides, the TGI in experiment [8] is 11.4 µM; in experiment [9], greater than 32.5 µM; in [10], 0.262 µM.
For `Cc1ccc(C2=Nc3c(N)ncnc3NC(c3cccc(Nc4ccnc5cc(C(F)(F)F)ccc45)c3)C2)cc1` (configuration not stated), the GI50 is 2.54 µM in [1]; 2.79 µM in experiment [2]; 3.15 µM in experiment [3]; 6.83 µM in [4]; 3.26 µM in experiment [5]; 2.17 µM in [6]. The GI50 in experiment [7] is 1.69 µM; in experiment [8] it was 4.93 µM; in experiment [9], 3.4 µM; in [10], 2.15 µM. Also, the TGI in experiment [1] is 9.75 µM; in experiment [2], 22.8 µM; in experiment [3], 15.2 µM; in experiment [4], greater than 100 µM; in experiment [5], 13.3 µM; in experiment [6] it was 6.05 µM. In addition, the TGI in experiment [7] is 3.55 µM; in experiment [8], 90.9 µM; in experiment [9], greater than 100 µM; in [10] it was 5.15 µM.
`CC(CC(=O)O)(CC(=O)O)C(=O)O`: the TGI in experiment [1], in experiment [2], in experiment [3], in [4], in [5] and in experiment [6] was greater than 100 µM in each case. Moreover, the TGI in [7], in experiment [8], in [9] and in [10] was greater than 100 µM in each case.
As for `Oc1cccc(-c2nc3ccccc3s2)c1`, the TGI in experiment [1] is greater than 100 µM; in experiment [2], greater than 100 µM; in [3], 66 µM; in experiment [4], greater than 100 µM; in [5] it was 48.6 µM; in [6], greater than 100 µM. Moreover, the TGI is greater than 100 µM in experiment [7], 63.8 µM in experiment [8], greater than 100 µM in experiment [9] and greater than 100 µM in experiment [10].
For `Cn1c(=O)n(-c2ccc(C(C)(C)C#N)cc2)c2c3cc(-c4cnc5ccccc5c4)ccc3ncc21`, the GI50 in experiment [1] was < 0.01 µM and 0.00431 µM; in experiment [2], < 0.01 µM and 0.00361 µM; in [4] it was < 0.01 µM and 0.00575 µM; in experiment [5], 0.0134 µM and 0.00683 µM and 0.0153 µM; in [6], < 0.0116 µM and 0.00603 µM and < 0.0114 µM; in experiment [7], < 0.01 µM and 0.00351 µM. The GI50 was < 0.01 µM and 0.00363 µM in experiment [8]; 0.025 µM and 0.00703 µM and 0.0148 µM in experiment [9]; 0.012 µM and 0.00598 µM and 0.0137 µM in experiment [10]. Moreover, the TGI is 0.0622 µM and 0.122 µM and 0.0651 µM in [1]; 0.0749 µM in experiment [2]; 0.0401 µM in experiment [3]; 33.8 µM and > 10 µM and > 100 µM in [4]; 1.28 µM and > 10 µM in experiment [5]; 0.385 µM and 3.13 µM and 1.24 µM in [6]. Besides, the TGI was 0.0605 µM and 0.00781 µM and 0.0181 µM in experiment [7]; 0.0258 µM and 0.0381 µM in experiment [8]; 0.0505 µM and 0.292 µM and 0.0744 µM in experiment [10].
Regarding `CC1(C)N=C(N)N=C(N)N1c1ccc(OCC(=O)Nc2cccc(S(=O)(=O)F)c2)c(Cl)c1`, the TGI was greater than 100 µM in experiment [1]; greater than 100 µM in experiment [2]; greater than 100 µM in [3]; greater than 100 µM in experiment [4]; greater than 95 µM in experiment [5]; greater than 100 µM in experiment [6]. Further, the TGI in experiment [7], in experiment [8], in [9] and in experiment [10] was greater than 100 µM throughout.
